Results from publication PMC9030254, “Target Hopping from Protein Kinases to PXR: Identification of Small-Molecule Protein Kinase Inhibitors as Selective Modulators of Pregnane X Receptor from TüKIC Library” (Cells, 2022).

Key:
Experiment in all cases: Kinase profiling
Assay type in all cases: biochemical
AKT2 = biological target: T1, AKT2 (Homo sapiens, UniProt P31751)
T1 construct: purchased ProQinase (Freiburg, Germany)
Description: (§1) The analysis was performed by ProQinase (Freiburg, Germany).

BRAF = biological target: T2, BRAF (Homo sapiens, UniProt P15056)
T2 construct: purchased ProQinase (Freiburg, Germany)
Description: as §1

CK1gamma1 = biological target: T3, CK1gamma1 (Homo sapiens, UniProt Q9HCP0)
T3 construct: purchased ProQinase (Freiburg, Germany)
Description: as §1

DAPK1 = biological target: T4, DAPK1 (Homo sapiens, UniProt P53355)
T4 construct: purchased ProQinase (Freiburg, Germany)
Description: as §1

ERK2 = biological target: T5, ERK2 (Homo sapiens, UniProt P28482)
T5 construct: purchased ProQinase (Freiburg, Germany)
Description: as §1

ERK5 = biological target: T6, ERK5 (Homo sapiens, UniProt Q13164)
T6 construct: purchased ProQinase (Freiburg, Germany)
Description: as §1

HCK = biological target: T7, HCK (Homo sapiens, UniProt P08631)
T7 construct: purchased ProQinase (Freiburg, Germany)
Description: as §1

MAP3K9 = biological target: T8, MAP3K9 (Homo sapiens, UniProt P80192)
T8 construct: purchased ProQinase (Freiburg, Germany)
Description: as §1

MKK7 = biological target: T9, MKK7 (Homo sapiens, UniProt O14733)
T9 construct: purchased ProQinase (Freiburg, Germany)
T9 sequence (O14733 1-419): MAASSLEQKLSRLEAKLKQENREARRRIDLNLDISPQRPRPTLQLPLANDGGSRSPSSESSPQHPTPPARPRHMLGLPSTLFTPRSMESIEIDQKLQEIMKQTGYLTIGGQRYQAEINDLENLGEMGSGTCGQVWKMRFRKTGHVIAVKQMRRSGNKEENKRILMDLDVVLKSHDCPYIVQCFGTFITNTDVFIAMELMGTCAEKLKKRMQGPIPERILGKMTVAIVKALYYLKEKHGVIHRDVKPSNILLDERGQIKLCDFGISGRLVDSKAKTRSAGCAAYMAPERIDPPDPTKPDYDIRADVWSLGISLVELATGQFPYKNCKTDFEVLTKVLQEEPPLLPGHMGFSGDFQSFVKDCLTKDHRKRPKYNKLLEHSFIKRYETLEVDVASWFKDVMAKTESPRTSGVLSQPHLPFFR
Description: as §1

MKNK2 = biological target: T10, MKNK2 (Homo sapiens, UniProt Q9HBH9)
T10 construct: purchased ProQinase (Freiburg, Germany)
Description: as §1

NEK6 = biological target: T11, NEK6 (Homo sapiens, UniProt Q9HC98)
T11 construct: purchased ProQinase (Freiburg, Germany)
Description: as §1

PRKD2 = biological target: T12, PRKD2 (Homo sapiens, UniProt Q9BZL6)
T12 construct: purchased ProQinase (Freiburg, Germany)
T12 sequence (Q9BZL6 1-878): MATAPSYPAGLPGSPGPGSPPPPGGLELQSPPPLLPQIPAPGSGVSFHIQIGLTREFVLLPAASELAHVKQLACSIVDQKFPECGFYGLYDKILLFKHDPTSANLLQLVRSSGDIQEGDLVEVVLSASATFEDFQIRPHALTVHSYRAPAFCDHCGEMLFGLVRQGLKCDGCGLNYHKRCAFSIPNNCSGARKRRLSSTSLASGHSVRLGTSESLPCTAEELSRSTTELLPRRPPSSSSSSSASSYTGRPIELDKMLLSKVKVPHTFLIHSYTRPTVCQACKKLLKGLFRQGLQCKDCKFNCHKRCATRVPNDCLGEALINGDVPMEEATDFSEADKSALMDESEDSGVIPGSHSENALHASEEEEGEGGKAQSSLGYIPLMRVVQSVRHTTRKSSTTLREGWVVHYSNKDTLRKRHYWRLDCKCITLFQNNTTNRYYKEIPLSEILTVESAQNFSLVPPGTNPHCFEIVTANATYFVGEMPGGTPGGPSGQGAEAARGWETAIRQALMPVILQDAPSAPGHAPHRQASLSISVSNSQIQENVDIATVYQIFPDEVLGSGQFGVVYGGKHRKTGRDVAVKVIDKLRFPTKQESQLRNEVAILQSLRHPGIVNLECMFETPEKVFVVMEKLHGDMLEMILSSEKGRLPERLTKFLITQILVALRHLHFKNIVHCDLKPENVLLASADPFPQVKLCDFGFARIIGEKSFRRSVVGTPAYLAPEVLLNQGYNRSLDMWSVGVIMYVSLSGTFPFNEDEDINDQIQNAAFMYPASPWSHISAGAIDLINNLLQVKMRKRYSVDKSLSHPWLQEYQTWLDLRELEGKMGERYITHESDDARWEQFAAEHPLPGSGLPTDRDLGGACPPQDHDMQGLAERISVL
Description: as §1

RIPK2 = biological target: T13, RIPK2 (Homo sapiens, UniProt O43353)
T13 construct: purchased ProQinase (Freiburg, Germany)
Description: as §1

STK33 = biological target: T14, STK33 (Homo sapiens, UniProt Q9BYT3)
T14 construct: purchased ProQinase (Freiburg, Germany)
Description: as §1

TIE2 = biological target: T15, TIE2 (Homo sapiens, UniProt Q02763)
T15 construct: purchased ProQinase (Freiburg, Germany)
Description: as §1

TRKA = biological target: T16, TRKA (Homo sapiens, UniProt P04629)
T16 construct: purchased ProQinase (Freiburg, Germany)
Description: as §1

TSSK1 = biological target: T17, TSSK1 (Homo sapiens, UniProt Q9BXA7)
T17 construct: purchased ProQinase (Freiburg, Germany)
T17 sequence (Q9BXA7 1-367): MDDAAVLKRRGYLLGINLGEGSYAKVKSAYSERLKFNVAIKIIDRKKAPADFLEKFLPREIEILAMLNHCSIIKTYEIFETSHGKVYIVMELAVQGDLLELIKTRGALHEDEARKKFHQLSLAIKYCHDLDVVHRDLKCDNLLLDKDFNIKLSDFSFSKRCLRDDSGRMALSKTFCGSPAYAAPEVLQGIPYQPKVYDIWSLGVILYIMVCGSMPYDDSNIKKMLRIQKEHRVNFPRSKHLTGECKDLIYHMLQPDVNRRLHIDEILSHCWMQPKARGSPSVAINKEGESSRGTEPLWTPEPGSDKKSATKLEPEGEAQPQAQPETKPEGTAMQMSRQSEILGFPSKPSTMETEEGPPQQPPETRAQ
Description: as §1

T1 sequence (P31751 whole entry): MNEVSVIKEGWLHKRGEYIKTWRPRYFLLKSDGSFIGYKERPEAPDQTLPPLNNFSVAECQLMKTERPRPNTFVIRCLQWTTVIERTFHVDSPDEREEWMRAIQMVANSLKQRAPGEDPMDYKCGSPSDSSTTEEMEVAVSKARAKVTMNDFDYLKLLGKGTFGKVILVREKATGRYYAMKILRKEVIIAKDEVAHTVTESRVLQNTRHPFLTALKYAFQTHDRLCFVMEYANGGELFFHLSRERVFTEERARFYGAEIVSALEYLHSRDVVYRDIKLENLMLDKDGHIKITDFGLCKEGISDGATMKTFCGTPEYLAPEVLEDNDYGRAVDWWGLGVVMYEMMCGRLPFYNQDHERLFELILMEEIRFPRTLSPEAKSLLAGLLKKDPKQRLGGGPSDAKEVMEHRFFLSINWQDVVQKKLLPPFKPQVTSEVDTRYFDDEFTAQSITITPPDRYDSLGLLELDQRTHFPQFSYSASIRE
T4 sequence (P53355 whole entry): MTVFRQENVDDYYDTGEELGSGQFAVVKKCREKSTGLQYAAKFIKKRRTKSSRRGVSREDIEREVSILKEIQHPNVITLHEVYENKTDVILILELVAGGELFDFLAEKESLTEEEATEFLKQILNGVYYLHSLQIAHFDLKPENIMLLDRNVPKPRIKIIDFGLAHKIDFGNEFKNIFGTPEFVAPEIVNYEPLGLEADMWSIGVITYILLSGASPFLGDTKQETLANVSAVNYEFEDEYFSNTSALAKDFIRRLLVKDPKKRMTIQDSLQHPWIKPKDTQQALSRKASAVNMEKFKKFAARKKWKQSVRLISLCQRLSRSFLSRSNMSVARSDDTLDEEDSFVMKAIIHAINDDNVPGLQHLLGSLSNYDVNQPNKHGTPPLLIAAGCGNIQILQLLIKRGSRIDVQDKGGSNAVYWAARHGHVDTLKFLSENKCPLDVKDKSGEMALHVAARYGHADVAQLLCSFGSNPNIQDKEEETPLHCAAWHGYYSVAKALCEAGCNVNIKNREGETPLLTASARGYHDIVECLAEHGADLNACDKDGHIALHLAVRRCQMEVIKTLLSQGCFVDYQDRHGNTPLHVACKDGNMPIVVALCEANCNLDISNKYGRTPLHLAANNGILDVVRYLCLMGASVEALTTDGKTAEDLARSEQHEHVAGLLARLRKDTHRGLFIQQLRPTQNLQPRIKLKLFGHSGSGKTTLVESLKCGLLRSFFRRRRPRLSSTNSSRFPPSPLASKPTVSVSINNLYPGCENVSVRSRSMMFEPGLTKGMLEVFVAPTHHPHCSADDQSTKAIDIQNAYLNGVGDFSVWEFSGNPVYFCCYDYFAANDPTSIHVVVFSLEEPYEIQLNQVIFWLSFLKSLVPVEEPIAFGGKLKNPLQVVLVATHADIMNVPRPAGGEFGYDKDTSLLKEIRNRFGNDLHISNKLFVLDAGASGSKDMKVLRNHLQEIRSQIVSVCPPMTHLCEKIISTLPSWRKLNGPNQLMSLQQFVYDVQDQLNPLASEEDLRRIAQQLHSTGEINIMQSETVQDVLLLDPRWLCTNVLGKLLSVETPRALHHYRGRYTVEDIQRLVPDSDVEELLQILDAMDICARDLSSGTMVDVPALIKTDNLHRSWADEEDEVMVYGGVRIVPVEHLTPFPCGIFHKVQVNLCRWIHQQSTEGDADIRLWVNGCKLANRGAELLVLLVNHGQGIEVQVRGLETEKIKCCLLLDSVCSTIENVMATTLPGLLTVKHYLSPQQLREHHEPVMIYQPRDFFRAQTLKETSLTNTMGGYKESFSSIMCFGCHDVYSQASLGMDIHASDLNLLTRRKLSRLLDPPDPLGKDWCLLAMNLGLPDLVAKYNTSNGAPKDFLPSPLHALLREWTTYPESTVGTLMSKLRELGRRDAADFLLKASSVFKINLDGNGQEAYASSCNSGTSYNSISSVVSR
T8 sequence (P80192 whole entry): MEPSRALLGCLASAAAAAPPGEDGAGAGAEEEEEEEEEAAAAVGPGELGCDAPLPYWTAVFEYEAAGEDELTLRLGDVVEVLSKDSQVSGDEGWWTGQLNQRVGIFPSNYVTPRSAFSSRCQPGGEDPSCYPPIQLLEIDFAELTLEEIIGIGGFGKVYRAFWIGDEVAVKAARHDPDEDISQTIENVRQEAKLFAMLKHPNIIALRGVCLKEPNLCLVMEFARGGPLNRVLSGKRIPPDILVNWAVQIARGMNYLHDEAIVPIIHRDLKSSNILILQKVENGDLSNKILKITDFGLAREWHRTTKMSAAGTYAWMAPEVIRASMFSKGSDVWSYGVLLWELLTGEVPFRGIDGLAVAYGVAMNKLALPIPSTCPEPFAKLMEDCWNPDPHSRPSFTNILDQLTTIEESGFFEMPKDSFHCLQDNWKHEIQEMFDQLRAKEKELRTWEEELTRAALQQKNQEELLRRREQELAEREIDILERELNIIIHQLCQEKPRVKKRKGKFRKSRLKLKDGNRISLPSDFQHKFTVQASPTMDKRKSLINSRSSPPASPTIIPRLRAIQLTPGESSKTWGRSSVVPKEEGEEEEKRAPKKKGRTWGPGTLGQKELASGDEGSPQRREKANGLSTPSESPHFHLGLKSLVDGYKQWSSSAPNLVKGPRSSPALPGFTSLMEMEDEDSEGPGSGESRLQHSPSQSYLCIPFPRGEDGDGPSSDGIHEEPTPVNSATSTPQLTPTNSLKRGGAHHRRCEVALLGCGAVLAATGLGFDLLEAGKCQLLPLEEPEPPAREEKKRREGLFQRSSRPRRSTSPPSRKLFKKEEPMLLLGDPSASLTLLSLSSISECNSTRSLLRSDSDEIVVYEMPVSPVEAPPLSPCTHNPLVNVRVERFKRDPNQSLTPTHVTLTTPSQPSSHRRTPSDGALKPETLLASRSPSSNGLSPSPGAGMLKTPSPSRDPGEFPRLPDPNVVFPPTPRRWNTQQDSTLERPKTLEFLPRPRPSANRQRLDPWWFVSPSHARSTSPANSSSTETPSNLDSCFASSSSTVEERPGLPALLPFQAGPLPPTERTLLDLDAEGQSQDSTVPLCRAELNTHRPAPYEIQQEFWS
T7 sequence (P08631 whole entry): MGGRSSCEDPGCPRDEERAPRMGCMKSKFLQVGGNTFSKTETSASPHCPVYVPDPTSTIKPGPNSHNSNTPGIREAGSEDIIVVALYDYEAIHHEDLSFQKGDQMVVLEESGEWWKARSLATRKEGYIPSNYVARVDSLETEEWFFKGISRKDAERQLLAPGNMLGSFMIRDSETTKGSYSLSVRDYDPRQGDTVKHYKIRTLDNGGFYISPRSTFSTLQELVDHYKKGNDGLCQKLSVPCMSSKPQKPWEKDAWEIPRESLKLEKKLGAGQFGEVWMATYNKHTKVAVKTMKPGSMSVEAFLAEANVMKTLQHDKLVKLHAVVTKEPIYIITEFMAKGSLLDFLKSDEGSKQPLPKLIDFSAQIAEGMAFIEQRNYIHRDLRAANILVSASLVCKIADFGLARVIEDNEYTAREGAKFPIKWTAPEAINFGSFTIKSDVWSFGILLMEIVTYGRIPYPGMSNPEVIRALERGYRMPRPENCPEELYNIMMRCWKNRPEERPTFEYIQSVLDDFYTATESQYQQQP
T3 sequence (Q9HCP0 whole entry): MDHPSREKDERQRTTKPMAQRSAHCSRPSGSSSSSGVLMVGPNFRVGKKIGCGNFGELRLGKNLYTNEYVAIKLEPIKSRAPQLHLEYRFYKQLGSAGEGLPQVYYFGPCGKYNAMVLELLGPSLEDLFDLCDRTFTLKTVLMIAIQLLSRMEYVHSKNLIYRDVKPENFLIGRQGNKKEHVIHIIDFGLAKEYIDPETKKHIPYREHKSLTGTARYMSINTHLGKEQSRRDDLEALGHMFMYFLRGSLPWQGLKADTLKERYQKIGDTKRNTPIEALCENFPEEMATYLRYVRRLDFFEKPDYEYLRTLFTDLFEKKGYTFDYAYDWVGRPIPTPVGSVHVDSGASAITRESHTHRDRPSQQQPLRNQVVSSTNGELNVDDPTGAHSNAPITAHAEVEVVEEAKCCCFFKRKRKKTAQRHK
T10 sequence (Q9HBH9 whole entry): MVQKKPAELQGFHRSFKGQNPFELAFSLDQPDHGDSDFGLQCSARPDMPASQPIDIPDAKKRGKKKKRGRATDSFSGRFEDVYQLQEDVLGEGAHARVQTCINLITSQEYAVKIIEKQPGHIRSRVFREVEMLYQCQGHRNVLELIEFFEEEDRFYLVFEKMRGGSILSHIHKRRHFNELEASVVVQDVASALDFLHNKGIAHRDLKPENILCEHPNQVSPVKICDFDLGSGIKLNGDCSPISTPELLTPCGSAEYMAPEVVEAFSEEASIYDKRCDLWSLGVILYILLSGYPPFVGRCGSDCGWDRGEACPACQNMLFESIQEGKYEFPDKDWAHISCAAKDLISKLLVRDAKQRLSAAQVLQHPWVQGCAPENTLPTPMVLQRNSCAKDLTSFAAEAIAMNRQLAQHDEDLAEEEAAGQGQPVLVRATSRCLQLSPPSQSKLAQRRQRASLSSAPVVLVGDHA
T13 sequence (O43353 whole entry): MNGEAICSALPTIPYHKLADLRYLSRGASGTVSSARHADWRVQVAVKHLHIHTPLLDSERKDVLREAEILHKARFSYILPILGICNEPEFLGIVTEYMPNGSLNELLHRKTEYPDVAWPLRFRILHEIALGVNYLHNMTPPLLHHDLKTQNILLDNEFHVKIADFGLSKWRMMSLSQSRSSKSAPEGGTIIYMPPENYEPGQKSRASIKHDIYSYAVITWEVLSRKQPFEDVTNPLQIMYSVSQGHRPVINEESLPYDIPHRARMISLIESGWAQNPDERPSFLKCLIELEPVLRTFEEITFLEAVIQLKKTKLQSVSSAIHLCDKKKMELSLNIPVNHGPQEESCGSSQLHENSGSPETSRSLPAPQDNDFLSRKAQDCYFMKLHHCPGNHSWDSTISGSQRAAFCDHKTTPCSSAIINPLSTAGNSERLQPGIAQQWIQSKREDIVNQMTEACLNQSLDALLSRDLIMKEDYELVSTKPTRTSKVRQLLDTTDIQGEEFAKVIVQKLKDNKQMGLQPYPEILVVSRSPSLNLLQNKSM

O=C(Nc1ccc(F)c(Nc2ccc3c(c2)CCCCC3=O)c1)c1cccc(F)c1 [Compound 109]
Residual activity (AKT2; 1.0E-05 M): 92 % of control | Residual activity (AKT2; 1.0E-06 M): 92 % of control | inhibition at 10 µM (BRAF): ≥ 50% | Residual activity (BRAF; 1.0E-05 M): 39 % of control | Residual activity (BRAF; 1.0E-06 M): 67 % of control | Residual activity (CK1gamma1; 1.0E-05 M): 57 % of control | Residual activity (CK1gamma1; 1.0E-06 M): 86 % of control | Residual activity (DAPK1; 1.0E-05 M): 102 % of control | Residual activity (DAPK1; 1.0E-06 M): 109 % of control | Residual activity (ERK2; 1.0E-05 M): 93 % of control | Residual activity (ERK2; 1.0E-06 M): 95 % of control | Residual activity (ERK5; 1.0E-05 M): 93 % of control | Residual activity (ERK5; 1.0E-06 M): 90 % of control | Residual activity (HCK; 1.0E-05 M): 76 % of control | Residual activity (HCK; 1.0E-06 M): 99 % of control | Residual activity (MAP3K9; 1.0E-05 M): 103 % of control | Residual activity (MAP3K9; 1.0E-06 M): 89 % of control | Residual activity (MKK7; 1.0E-05 M): 90 % of control | Residual activity (MKK7; 1.0E-06 M): 84 % of control | Residual activity (MKNK2; 1.0E-05 M): 107 % of control | Residual activity (MKNK2; 1.0E-06 M): 104 % of control | Residual activity (NEK6; 1.0E-05 M): 92 % of control | Residual activity (NEK6; 1.0E-06 M): 96 % of control | Residual activity (PRKD2; 1.0E-05 M): 81 % of control | Residual activity (PRKD2; 1.0E-06 M): 82 % of control | Residual activity (RIPK2; 1.0E-05 M): 84 % of control | Residual activity (RIPK2; 1.0E-06 M): 99 % of control | Residual activity (STK33; 1.0E-05 M): 99 % of control | Residual activity (STK33; 1.0E-06 M): 93 % of control | Residual activity (TIE2; 1.0E-05 M): 78 % of control | Residual activity (TIE2; 1.0E-06 M): 87 % of control | Residual activity (TRKA; 1.0E-05 M): 97 % of control | Residual activity (TRKA; 1.0E-06 M): 101 % of control | Residual activity (TSSK1; 1.0E-05 M): 102 % of control | Residual activity (TSSK1; 1.0E-06 M): 102 % of control

O=C(Cc1ccccc1)Nc1ccc(F)c(Nc2ccc3c(c2)CCCCC3=O)c1 [Compound 100]
Residual activity (AKT2; 1.0E-05 M): 82 % of control | Residual activity (AKT2; 1.0E-06 M): 92 % of control | inhibition at 10 µM (BRAF): ≥ 50% | Residual activity (BRAF; 1.0E-05 M): 25 % of control | Residual activity (BRAF; 1.0E-06 M): 58 % of control | Residual activity (CK1gamma1; 1.0E-05 M): 115 % of control | Residual activity (CK1gamma1; 1.0E-06 M): 111 % of control | Residual activity (DAPK1; 1.0E-05 M): 110 % of control | Residual activity (DAPK1; 1.0E-06 M): 127 % of control | Residual activity (ERK2; 1.0E-05 M): 90 % of control | Residual activity (ERK2; 1.0E-06 M): 101 % of control | Residual activity (ERK5; 1.0E-05 M): 103 % of control | Residual activity (ERK5; 1.0E-06 M): 80 % of control | Residual activity (HCK; 1.0E-05 M): 95 % of control | Residual activity (HCK; 1.0E-06 M): 107 % of control | Residual activity (MAP3K9; 1.0E-05 M): 96 % of control | Residual activity (MAP3K9; 1.0E-06 M): 102 % of control | Residual activity (MKK7; 1.0E-05 M): 110 % of control | Residual activity (MKK7; 1.0E-06 M): 101 % of control | Residual activity (MKNK2; 1.0E-05 M): 115 % of control | Residual activity (MKNK2; 1.0E-06 M): 112 % of control | Residual activity (NEK6; 1.0E-05 M): 87 % of control | Residual activity (NEK6; 1.0E-06 M): 95 % of control | Residual activity (PRKD2; 1.0E-05 M): 92 % of control | Residual activity (PRKD2; 1.0E-06 M): 87 % of control | Residual activity (RIPK2; 1.0E-05 M): 89 % of control | Residual activity (RIPK2; 1.0E-06 M): 104 % of control | Residual activity (STK33; 1.0E-05 M): 96 % of control | Residual activity (STK33; 1.0E-06 M): 109 % of control | Residual activity (TIE2; 1.0E-05 M): 66 % of control | Residual activity (TIE2; 1.0E-06 M): 96 % of control | Residual activity (TRKA; 1.0E-05 M): 94 % of control | Residual activity (TRKA; 1.0E-06 M): 107 % of control | Residual activity (TSSK1; 1.0E-05 M): 105 % of control | Residual activity (TSSK1; 1.0E-06 M): 112 % of control
